Patent publication US20220160779A1, “COMPOSITION FOR PROMOTING CARTILAGE TISSUE REGENERATION” (National University Corporation Tokyo Medical and Dental …, priority 2019, published 2022)

B1: FGF18: FGF18 given by intra-articular administration (protein, UniProt O76093 28-207, looked up)
Fibroblast growth factor 18: EENVDFRIHVENQTRARDDVSRKQLRLYQLYSRTSGKHIQVLGRRISARGEDGDKYAQLLVETDTFGSQVRIKGKETEFYLCMNRKGKLVGKPDGTSKECVFIEKVLENNYTALMSAKYSGWYVGFTKKGRPRKGPKTRENQQDVHFMKRYPKGQPELQKPFKYTTVTKRSRRIRPTHPA
B2: IL10: recombinant IL10 protein (protein, UniProt P22301 19-178, looked up)
Interleukin-10: SPGQGTQSENSCTHFPGNLPNMLRDLRDAFSRVKTFFQMKDQLDNLLLKESLLEDFKGYLGCQALSEMIQFYLEEVMPQAENQDPDIKAHVNSLGENLKTLRLRLRRCHRFLPCENKSKAVEQVKNAFNKLQEKGIYKAMSEFDIFINYIEAYMTMKIRN

Key:
[1] = system: synovial MSCs; assay: Proliferation assay of synovial MSCs with recombinant protein (MTT assay); format: cell-based, human; conditions: for effect of inhibitor on pro-proliferative activity of Activin A / cell count (MTT assay): 0.5% FBS + rh Activin A + inhibitor, FIG. 5E; for proliferation activation of MSCs (MTT assay): recombinant protein added to normal growth medium (10% FBS) up to 100 times the ED50, FIG. 3C
Procedure: Primary human synovial cells were isolated from the synovial tissues obtained from patients who underwent total knee arthroplasty (TKA), as described in Sekiya I. et al, Clin Orthop Relat Res, 2015, 473(7), pp. 2316 to 2326. That is, first, 0.5 to 1 mg of synovium obtained by incising the suprapatellar bursa was subjected to collagenase D treatment (Sigma, MO, USA, 3 hours at 37° C.) to disperse nucleated cells. Debris was removed by passing the cell dispersion through a 70 μm nylon mesh. Nucleated cells were seeded in a 15 cm dish at 5.7×10^2 cells/cm^2 and maintained and cultured in MEM-alpha medium supplemented with 10% FBS and antibiotics (Gibco, MA, USA) for 14 days. The cells were then separated from the dish in TripLE solution (Gibco) and seeded twice more in a new dish to obtain a sufficient cell count to be used in the experiments. Note that in all experiments, cells within 6 passages were used.
To evaluate the pro-proliferative activity of recombinant proteins (IL6, IL8, IL10, and Activin A), MTT assays were performed (see FIGS. 3C and 5C-E). Synovial MSCs were seeded to 1×10^3 cells/well in 96-well plates and cultured in 0.2 mL of normal growth medium 1 day before being subjected to recombinant protein treatment. On the following day, the medium was replaced with a fresh one (normal growth medium or medium with a reduced FBS concentration of 0.5% and recombinant protein added (10 times the concentration of ED50 or 100 times the concentration of ED50)). MTT assays were performed at days 0, 1, 3, 5, and 7 according to the method described in Denizot F. et al., J Immunol Methods, 1986, 89(2), pp. 271 to 277.
In addition, the present inventors tried to clarify the molecular mechanism of MSC proliferative activity by Activin A. It has been reported that the ERK and PI3K signal transduction pathways are activated for MSC proliferation (see Uomizu, M. et al, J Med Dent Sci., 2018, vol. 65, pp. 73 to 82). With the above in mind, Activin A (rh Activin A) was applied to synovial MSCs in the presence of PI3K-PKB/Akt and Erk1/Erk2, a specific inhibitor for each of these signal transduction pathways, and the cell count was measured by MTT assay.

[2] = system: synovial MSCs; assay: In-vitro differentiation assay of MSCs (cartilage, bone, adipocytes); format: cell-based, human; conditions: added to chondrogenic differentiation medium, pellet culture 2 weeks; FIG. 6C
Procedure: In-vitro differentiation assays were performed according to the method described in Colter D C. et al, Proc Natl Acad Sci USA, 2001, 98, pp. 7841 to 7845.
To form chondrogenic spheroids, 2.5×10^5 cells were transferred into 15 mL polypropylene tubes (BD Biosciences) and subjected to centrifugation at 450×g for 10 minutes. Then, the cell pellets were cultured in chondrogenic medium containing 1000 ng/mL rhBMP-2 (Infuse Bone Graft; Medtronic, TN, USA), 10 ng/mL […], and 100 nM dexamethasone (Sigma-Aldrich, MO, USA) for 14 days.
For calcification, cells were cultured in normal growth medium supplemented with 1 nM dexamethasone, 20 mM β-glycerophosphate, and 50 μg/mL ascorbic acid-2-phosphate (Sigma-Aldrich) for 21 days. Calcified nodule formation was visualized by alizarin red staining (Sigma-Aldrich).
For adipogenesis, the cells were cultured for 21 days in MEM-alpha supplemented with 10% FBS, 100 nM dexamethasone (Sigma-Aldrich), 0.5 mM IBMX (isobutyl-1-methylxanthine; Sigma-Aldrich), and 50 μM indomethacin (Wako, Tokyo, Japan). The adipogenic cultures were immobilized and stained with Oil Red O solution (Sigma-Aldrich).

[3] = system: rat model of total articular cartilage loss; assay: Full thickness articular cartilage defect model; format: in vivo; conditions: 4 weeks after the defect, FIG. 8
Procedure: Next, in order to verify the regeneration of damaged articular cartilage and the suppression of degenerative degeneration, a model of full thickness articular cartilage defect was prepared to examine the effects of rh Activin A administration. Specifically, a 1.4 mmφ total articular cartilage loss was prepared in the femoral intercondylar region using an airtome, and 180 ng of Activin A (rh Activin A) was injected intra-articularly 1 week later.

[4] = system: C57BL/6J mice; assay: Medial meniscus anterior 1/2 resection model; format: in vivo, mouse; conditions: intra-articular on day 7; 10 days after resection; FIG. 7A
Source text: Twenty male C57BL/6J mice (8 weeks old, weight: about 25 g) were used for this study (5 mice in each group. ORIENTAL YEAST Co., Ltd. Tokyo, Japan). After anesthesia by isoflurane inhalation, a straight incision was made in the left anterior knee, and the anterior central side of the joint capsule was cut. The patellar tendon was then dislocated laterally to expose the anterior corner of the medial meniscus (see Hiyama K. et al, J Orthop Res., 2017, 35(9), pp. 1958 to 1965). The anterior corner of the meniscus was cut and dislocated anteriorly using forceps. The medial meniscus was cut perpendicularly at the medial collateral ligament, and the anterior portion of the medial meniscus was resected in a microscopic operation using a surgical microscope. The skin was closed in layers with non-absorbable sutures. Note that the right knee was subjected to sham surgery. In addition, the mice were kept under a 12-hour light/dark cycle with free movement, free feeding, and drinking water.
Recombinant human Activin A (42 ng/6 μL in PBS) and/or rh PDGF-AA (174 ng/6 μL in PBS) was injected intra-articularly on postoperative day 7 (see Hoshino T. et al., BMC Musculoskelet Disord., 2018, 19(1): 291). […]
Tissue samples were fixed in 4% paraformaldehyde for 3 to 4 days and subjected to decalcification in 20% ethylenediaminetetraacetic acid (EDTA) solution for 21 days. Then, they were embedded in paraffin wax. The specimens were then cut to a 5 μm thickness in the sagittal plane and stained with safranin O/Fast Green or hematoxylin/eosin (H&E) to histologically evaluate meniscus regeneration.
A modified Pauli's score system was used to histologically quantify meniscus regeneration (see Hiyama K. et al, J Orthop Res. 2017, 35(9), pp. 1958 to 1965). Histological evaluation was performed by two investigators in a blind manner.
Type I and II collagen immunostaining was performed as described in Tsuji K. et al, Cell Transplant., 2017, 26(6), pp. 1089 to 1102. That is, sections were subjected to deparaffinization with xylene (Wako Pure Chemical Industries, Tokyo, Japan), rehydrated stepwise with alcohol, and saturated with phosphate buffered saline (PBS). For type II collagen staining, the samples were pretreated with 50 mM Tris-HCl buffer (Wako Pure Chemical Industries) containing 0.4 mg/ml Proteinase K (Dako, Agilent Technologies, Santa Clara, Calif., USA) for 10 min. For type I collagen staining, no digestion with Proteinase K was performed.
Next, the cells were treated with methanol containing 0.3% hydrogen peroxide for 30 minutes to suppress the activity of endogenous peroxidase. As primary antibodies, anti-type I collagen antibody (1:200 dilution; Abcam cat. #ab34712, Cambridge, UK) or anti-type II collagen antibody (1:1000 dilution; Abcam […], Cambridge, UK) were added to the sections and incubated at 4° C. overnight. Then, the sections were rinsed with 0.1% PBS-Triton X-100 (MP Biomedicals Inc., Solon, Ohio, USA) and incubated with secondary antibodies diluted 1:200 [Biotinylated goat-derived anti-rabbit immunoglobulin G (IgG), Vector Laboratories, Burlingame, Calif., USA]. Then, the sections were rinsed, the signals were visualized with Vectastain ABC Reagent (Vector Laboratories), and diaminobenzidine staining (DAB, Vector Laboratories) was applied. In addition, the sections were contrast stained with hematoxylin (Muto Pure Chemicals, Tokyo, Japan).

[5] = system: rat meniscus damage model; conditions: intra-articular administration; cited from earlier work

Row | Molecule | effect of inhibitor on pro-proliferative activity of Activin A / cell count (MTT assay) [1] | proliferation activation of MSCs (MTT assay) [1] | further results
1 | COc1ccc(-c2ccc3c(N4CCOCC4)nc(N4C[C@@H](C)O[C@@H](C)C4)nc3n2)cc1CO [KU0063794, reference compound] | completely eliminated | – | –
2 | IL8: recombinant human IL8 protein | – | no proliferation activation of MSCs was observed | –
3 | IL6: recombinant human IL6 protein | – | no proliferation activation of MSCs was observed | –
4 | O=c1[nH]c2ccccc2n1C1CCN(Cc2ccc(-c3nc4cc5[nH]cnc5cc4nc3-c3ccccc3)cc2)CC1 [Akt1/2, reference compound] | completely eliminated | – | –
5 | PDGF | – | – | formation of chondrocyte aggregates (wet weight) [2]: effect of promoting the formation of chondrocyte aggregates; chondrogenic differentiation of the formed tissue [3]: no significant promotion effect; formation of fibrocartilage-like tissue in the articular cartilage defect site ([3]; intra-articular 1 week after defect (rh Activin A 180 ng/knee, rrPDGF-AA 900 ng/knee), vs PBS): promote the formation of fibrocartilage-like tissue; vascular invasion in the regenerated region [4]: observed
6 | COc1cccc(-c2cc(=O)c3ccccc3o2)c1N [PD98059, reference compound] | further reduced | – | –
7 | B1 | – | – | articular cartilage degeneration and cartilage thickness at the tibial plateau [5]: suppress articular cartilage degeneration and increase cartilage thickness at the tibial plateau
8 | B2 | – | no proliferation activation of MSCs was observed | –
